In patent publication US20220264876A1, “COMPOSITIONS AND METHODS FOR ENHANCING PLANT GROWTH” (BOYCE THOMPSON INSTITUTE FOR PLANT RESEARCH, INC., priority 2019, published 2022):

Legend:
Assay type in all cases: in vivo
rice seeds = assay: Rice seed pretreatment with ascr #18: germination/emergence and growth in soil
Method: FIGS. 1A-1D show the effect of ascr #18 on rice seed germination/emergence and growth. Rice seeds were pretreated 24 hours without (mock) or with different concentrations (10, 100 and 1000 nM) of ascr #18 before planting in soil. Seed germination/emergence from soil was measured after 7, 8, 9, 10 and 11 days after planting (FIG. 1A). The length of the plants was measured 15 days after planting (FIG. 1B) and 18 days after planting (FIG. 1C). Pictures were taken 15 days after planting (FIG. 1D). Data are averages±s.d. (n≥12). ***P≤0.0005; ****P≤0.00005; two-tailed t-test.
FIGS. 2A-2C show the effect of ascr #18 on rice seed germination/emergence and growth. Rice seeds were pretreated 24 hours without (mock) or with different concentrations (10, 100 and 1000 nM) of ascr #18 before planting in soil. Seed germination/emergence from soil was measured after 6, 7, 8, 9 and 10 days after planting (FIG. 2A). The length of the plants was measured 10, 12, 14, 15 and 18 days after planting (FIG. 2B). The fresh biomass of the plants was measured 18 days after planting (FIG. 2C). Data are averages±s.d. (n≥14). *P≤0.05; **P≤0.005; ***P≤0.0005; ****P≤0.00005; two-tailed t-test.
The effect of ascr #18 on rice seed germination/emergence and growth was tested. Briefly, rice seeds were pretreated 24 hours without (mock) or with different concentrations (10, 100 and 1000 nM) of ascr #18 before planting in soil. Seed germination/emergence from soil was measured after 7, 8, 9, 10 and 11 days after planting. […] The length of plants was also measured 15 days and 18 days after planting and pictures were taken at 15 days after planting.
Further studies of the effect of ascr #18 on rice seed germination/emergence and growth were performed. Rice seeds were pretreated 24 hours without (mock) or with different concentrations (10, 100 and 1000 nM) of ascr #18 before planting in soil. Seed germination/emergence from soil was measured after 6, 7, 8, 9 and 10 days after planting. […] The length of plants was also measured at 10, 12, 14, 15 and 18 days after planting. […] The fresh biomass of plants was also measured 18 days after planting.

tomato seeds = assay: Tomato seed pretreatment with ascr #18: germination/emergence and growth in soil
Method: Tomato seeds were pretreated 24 hours without (mock) or with different concentrations (1, 10, 100, 1000 and 10000 nM) of ascr #18 before planting on soil. The length of the plants was measured 12 days after planting. **P≤0.002; ****P≤0.00005; two-tailed t-test. FIGS. 4A-4F show the effect of ascr #18 on tomato seed germination/emergence and growth. Tomato seeds were pretreated 24 hours without (mock) or with different concentrations (10, 100, and 1000 nM) of ascr #18 before planting in soil. Seed germination/emergence from soil was measured after 4, 5, 6 and 7 days after planting (FIG. 4A). The length of plants was measured 12 and 14 days after planting (FIG. 4B). Pictures were taken 14 days after planting (FIG. 4C). **P≤0.002; ****P≤0.00005; two-tailed t-test. FIGS. 4D and 4E provide graphs of the fresh weight of above-ground (excluding root) part of the plants measured at day 21 after planting in soil for tomato seeds pretreated without (mock) or with different concentrations (0.1 and 10 μM) of ascr #18 for 24 hours (FIG. 4D) or 72 hours (FIG. 4E) before planting in soil. The length of the roots of the plants was also measured 21 days after planting (FIG. 4F). The effect of ascr #18 on was also determined on tomato plant growth. Tomato seeds were pretreated 24 hours without (mock) or with different concentrations (1, 10, 100, 1000 and 10000 nM) of ascr #18 before planting on soil. The length of the plants was measured 12 days after planting. […] Further studies on the effect of ascr #18 on tomato seed germination/emergence and growth. Tomato seeds were pretreated 24 hours without (mock) or with different concentrations (10, 100, and 1000 nM) of ascr #18 before planting in soil. Seed germination/emergence from soil was measured after 4, 5, 6 and 7 days after planting. […] The length of the plants was also measured 12 and 14 days after planting and pictures were taken 14 days after planting. […] In further experiments, tomato seeds were pretreated 24 or 72 hours without (mock) or with different concentrations (0.1 and 10 μM) of ascr #18 before planting in soil. More specifically, the tomato seeds were submerged in aqueous solutions of ascaroside for 24 hours or 72 hours directly before planting. Alternatively, seeds, (e.g., tomato seeds) can be coated with a solution of different concentrations of ascaroside containing polymeric binders commonly used for seed coating. Following treatment, the seeds can be dried and stored (e.g., for 2 weeks) before planting. The fresh weight of above-ground (excluding root) part of the plants was measured 21 days after planting. […] The length of the roots of the plants was also measured 21 days after planting.

Arabidopsis seeds = assay: Arabidopsis seed pretreatment with ascr #18: germination, growth and flowering
Method: Arabidopsis seeds were pretreated 24 hours without (mock) or with 1 μM ascr #18 before planting in soil. FIG. 5A provides a graph of the number of plants at different stages of germination counted 3 days after planting. Stages of germination; 0=no germination; 1=about to germinate; 2=germinated and two-leaf stage; 3=germinated and have expanded leaves (n=60). FIG. 5B provides graphs of the surface area of germinated plants measured by taking pictures and counting pixels using Fiji software and then normalizing by the total area for each plant (n=15 pots with each pot containing 4 plants). FIG. 5C provides a graph of the percent of plants flowering at day 25 after planting in soil. FIG. 5D provides a graph of the fresh weight of above-ground (excluding root) part of the plants measured at day 25 after planting in soil. *P=0.03; **P≤0.01; ***P≤0.001; ****P≤0.0001; two-tailed t-test. The effects of ascr #18 on Arabidopsis were also studied. Arabidopsis seeds were pretreated 24 hours without (mock) or with 1 μM ascr #18 for ascr #18 before planting in soil. The number of plants at different stages of germination were counted 3 days after planting. […] Additionally, the surface area of germinated plants was measured by taking pictures and counting pixels using Fiji software. The data was then normalized by the total area for each plant. […] The percentage of plants flowering at day 25 after planting in soil was also determined. […] The fresh weight of above-ground (excluding root) part of the plants was also measured 25 days after planting.

potato plants = assay: Spray treatment of four-week old potato plants with ascr #18: growth and tuber yield
Method: FIGS. 6A-6B show the effects of ascr #18 on potato plants. Four-week old potato plants were pretreated without (mock) or with ascr #18 (10 nM). Potato tubers were harvested from mock and pre-treated plants. FIG. 6A provides images of tubers from one representative plant that was mock treated and one representative plant that was treated with ascr #18. FIG. 6B provides a graph of the biomass of the above-ground (excluding root) part of the potato plants. FIGS. 7A-7E show the effect of ascr #18 on potato plant growth and yield. Four-week old potato plants were sprayed once with buffer only (mock) or 10 nM ascr #18 before harvesting two weeks later. […] Potato root system (7C) and tubers (7D) harvest from treated and mock plants are presented. Each pile of tubers was from one plant. FIG. 7E presents the tuber biomass of the mock and treated plants at harvest. The effects of ascr #18 on potato were also studied. Four week old potato plants were pretreated (sprat treatment) without (mock) or with ascr #18 (10 nM). Potato tubers were harvested from mock and pre-treated plants. Each pile of tubers in FIG. 6A were from one plant. […] The above-ground (excluding root) part of the potato plants was also measured.

corn seeds = assay: Corn seed pretreatment with ascr #18: germination/emergence and growth in soil
Method: FIGS. 8A-8B show the effect of ascr #18 on corn seed germination/emergence and growth. Corn seeds were pretreated 24 hours without (mock) or with different concentrations (10, 100 and 1000 nM) of ascr #18 before planting in soil. Seed germination/emergence from soil was measured after 4, 5, 6, 7, 8, 9, 10 and 11 days after planting (FIG. 8A). The height of the second node of the plants was measured 15 days after planting (FIG. 8B). Data are averages±s.d. (n≥12). *P≤0.05; two-tailed t-test. The effect of ascr #18 on corn seed germination/emergence and growth was also studied. Corn seeds were pretreated 24 hours without (mock) or with different concentrations (10, 100 and 1000 nM) of ascr #18 before planting in soil. Seed germination/emergence from soil was measured after 4, 5, 6, 7, 8, 9, 10 and 11 days after planting. […] The height of the second node of the plants was also measured 15 days after planting.

wheat seeds = assay: Wheat seed pretreatment with ascr #18: germination/emergence and growth in soil; settings: wheat seeds pretreated 24 hours with 10, 100, 1000 nM vs mock; 10 days after planting (FIG. 9B)
Method: FIGS. 9A-9B show the effect of ascr #18 on wheat seed germination/emergence and growth. Wheat seeds were pretreated 24 hours without (mock) or with different concentrations (10, 100 and 1000 nM) of ascr #18 before planting in soil. Seed germination/emergence from soil was measured after 2, 3, 4, 5, 6, 7, 8, 9 and 10 days after planting (FIG. 9A). The height of the second node of the plants was measured […] after planting (FIG. 9B). Data are averages±s.d. (n≥12). *P≤0.05; two-tailed t-test. The effect of ascr #18 on wheat seed germination/emergence and growth was also studied. Wheat seeds were pretreated 24 hours without (mock) or with different concentrations (10, 100 and 1000 nM) of ascr #18 before planting in soil. Seed germination/emergence from soil was measured after 2, 3, 4, 5, 6, 7, 8, 9 and 10 days after planting (FIG. 9A). The height of the second node of the plants was also measured 10 days after planting.

## CC1O[C@@H](O[C@@H](C)CCCCCCCCC(=O)O)C(O)C[C@H]1O (stereo in doubt) [ascr #18, (10R)-(3′R,5′R-dihydroxy-6′S-methyl-(2H)-tetrahydropyran-2-yloxy)-undecanoic Acid]
Rice seeds; rice seeds pretreated 24 hours with 10, 100, 1000 nM vs mock, 7-11 days after planting (FIG. 1A)
  Seed germination/emergence from soil: faster germination/emergence rate
Rice seeds; rice, further study, 10, 100, 1000 nM for 24 hours vs mock, 6-10 days after planting (FIG. 2A)
  Seed germination/emergence from soil: faster germination/emergence rate
Rice seeds; rice, further study, 10, 100, 1000 nM, 10, 12, 14, 15 and 18 days after planting (FIG. 2B)
  Length of plants: faster growth
Rice seeds; rice, further study, 10, 100, 1000 nM, 18 days after planting (FIG. 2C)
  Fresh biomass of plants: greater biomass
Rice seeds; rice, seed treatment 100 nM or 1000 nM vs untreated or 10 nM, 15 and 18 days after planting (FIGS. 1B-1D)
  Length of plants: taller
Tomato seeds; tomato seeds pretreated 24 or 72 hours with 0.1 and 10 μM vs mock, 21 days after planting (FIGS. 4D-4E), particularly with longer pretreatment
  Fresh weight of above-ground (excluding root) part of the plants: greater weight
Tomato seeds; tomato seeds pretreated 24 hours with 10, 100, 1000 nM vs mock, 4-7 days after planting (FIG. 4A)
  Seed germination/emergence from soil: faster germination/emergence rate
Tomato seeds; tomato, 0.1 and 10 μM vs mock, 21 days after planting (FIG. 4F)
  Length of the roots of the plants: longer roots
Tomato seeds; tomato, 10, 100, 1000 nM for 24 hours, 12 and 14 days after planting (FIGS. 4B-4C)
  Length of the plants: taller
Tomato seeds; tomato, seed treatment 100 nM or 1000 nM vs untreated or 10 nM, 12 days after planting (FIG. 3)
  Length of the plants: taller
Arabidopsis seeds; Arabidopsis seeds pretreated 24 hours with 1 μM vs mock, 3 days after planting (FIG. 5A)
  Number of plants at different stages of germination: faster germination/emergence rate
Arabidopsis seeds; Arabidopsis, 1 μM vs mock, 25 days after planting (FIG. 5D)
  Fresh weight of above-ground (excluding root) part of the plants: greater weight
Arabidopsis seeds; Arabidopsis, 1 μM vs mock, day 25 after planting in soil (FIG. 5C)
  Percentage of plants flowering: greater plant flowering
Arabidopsis seeds; Arabidopsis, 1 μM vs mock, pixel counting with Fiji software, normalized (FIG. 5B)
  Surface area of germinated plants: greater plant surface area
Potato plants; four-week old potato plants sprayed once with 10 nM vs mock, harvest two weeks later (FIG. 6B, FIGS. 7A-7E)
  Biomass of the potato plants (above-ground part, tubers): greater biomass
Potato plants; four-week old potato plants sprayed with 10 nM vs mock (FIG. 6A)
  Potato tubers harvested: significantly more potato tubers
Corn seeds; corn seeds pretreated 24 hours with 10, 100, 1000 nM vs mock, 4-11 days after planting (FIG. 8A)
  Seed germination/emergence from soil: faster germination/emergence rate
Corn seeds; corn, 10, 100, 1000 nM vs mock, 15 days after planting (FIG. 8B)
  Height of the second node of the plants: taller
Wheat seeds
  Height of the second node of the plants: taller
